Where a name gives a salt, the structure may show the parent alone. Read-outs that look alike come from different tables or passages of the source.
Experiments:
[1] = NAL depletion percent, HPLC-fluorescence detection
In short: (§1)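 NAL (5 μmol/L, pH 10.2 phosphate buffer) reacted with test substance (1 mmol/L stock in water, acetonitrile, acetone or 5% DMSO/acetonitrile) for 24 h at 25 °C in the dark; stopped with TFA to 0.5%. Unreacted NAL quantified by HPLC (UV or fluorescence), n=3; depletion % relative to substance-free blank.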

[2] = Average score of NAC and NAL depletion and prediction of skin allergenicity, UV method; settings: for Average score: test substance solution 1 mmol/L
In short: (§2)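 Score is the mean of NAC and NAL depletion percentages, rounded at the second decimal place. Test substances classed as allergenic (S) or non-allergenic (NS) from depletion of NAC, NAL, or their average score.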

[3] = Average score of NAC and NAL depletion and prediction of skin allergenicity, fluorescence method; settings: for Average score: test substance solution 1 mmol/L
In short: as §2

[4] = NAC depletion percent, HPLC-UV detection (281 nm); settings: Reference (UV method)
In short: (§3)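 NAC at 5 μmol/L in pH 8.0 phosphate buffer reacted with test substance (1 mmol/L stock in water, acetonitrile, acetone or 5% DMSO/acetonitrile) 24 h at 25 °C in the dark, n=3. Stopped with TFA (0.5% final); unreacted NAC quantified by HPLC, depletion percent calculated against blank without test substance.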

[5] = NAC depletion percent, HPLC-fluorescence detection
In short: as §3

[6] = cited from earlier work
[7] = NAL depletion percent, HPLC-UV detection (281 nm); settings: Reference (UV method)
In short: as §1

[8] = single substance, test substance solution 1 mmol/L, fluorescence method
[9] = single substance, Reference (UV method), criterion average score […]
[10] = single substance, Reference (UV method)
[11] = single substance, fluorescence method, criterion average score […]
[12] = single substance, fluorescence method
[13] = single substance, test substance solution 1 mmol/L
[14] = known values, LLNA-test-based classification, − for non-allergenic substances
[15] = Fluorescence method, non-allergenic substance

| SMILES | NAL depletion (%) [1, 8] | Prediction result [2, 9] | Average score [2, 10] | Prediction result [3, 11] | Average score [3, 12] | NAC depletion (%) [4, 13] | NAC depletion (%) [5, 8] | EC3 (%) [6, 14] | NAL depletion (%) [7, 13] | NAL depletion (%) [1, 15] | Prediction result [2] | Prediction result [3] | NAC depletion (%) ([4]; non-allergenic substance) | NAC depletion (%) [5, 15] | EC3 (%) ([6]; in vivo) | NAL depletion (%) ([7]; non-allergenic substance) | Prediction result ([2]; Reference (UV method), skin allergenicity prediction) | Prediction result ([3]; Fluorescence method, skin allergenicity prediction) |
| --- | --- | --- | --- | --- | --- | --- | --- | --- | --- | --- | --- | --- | --- | --- | --- | --- | --- | --- |
| Cn1sc(Cl)cc1=O [5-Chloro-methyl-4-isothiazolin-3-one] | 9.3% | S (S represents as being an allergenic substance) | 58.8% | S (S represents as being an allergenic substance) | 54.7% | 100.0% | 100.0% | 0.009% | 17.7% |  |  |  |  |  |  |  |  |  |
| NC1=CC(=Nc2ccc(N)cc2)C(N)=CC1=Nc1ccc(N)cc1 [Bandrowski's base] | 1.7% | S (S represents as being an allergenic substance) | 52.9% | S (S represents as being an allergenic substance) | 50.8% | 100.0% | 100.0% | 0.008% | 5.7% |  |  |  |  |  |  |  |  |  |
| c1ccc(COOCc2ccccc2)cc1 [Benzyl peroxide] | 63.7% | S (S represents as being an allergenic substance) | 75.3% | S (S represents as being an allergenic substance) | 81.9% | 100.0% | 100.0% | 0.004% | 50.6% |  |  |  |  |  |  |  |  |  |
| ClC(Cl)c1ccccc1 [Benzylidene dichloride] |  |  |  |  |  |  |  |  |  | 1.4% | NS (key: S represents as being an allergenic substance; NS represents as being a non-allergenic substance) | NS (key: S represents as being an allergenic substance; NS represents as being a non-allergenic substance) | 0.9% | 2.1% | − | −0.3% |  |  |
| CC(=O)C=Cc1ccccc1 [Benzylideneacetone] | 10.0% | S (S represents as being an allergenic substance) | 26.1% | S (S represents as being an allergenic substance) | 38.6% | 44.9% | 67.3% | 3.7% | 7.2% |  |  |  |  |  |  |  |  |  |
| CCN(CCNS(C)(=O)=O)c1ccc(N)c(C)c1.CCN(CCNS(C)(=O)=O)c1ccc(N)c(C)c1.O=S(=O)(O)O.O=S(=O)(O)O.O=S(=O)(O)O [CD3] | 8.1% | S (S represents as being an allergenic substance) | 46.6% | S (S represents as being an allergenic substance) | 54.0% | 76.6% | 100.0% | 0.6% | 16.5% |  |  |  |  |  |  |  |  |  |
| Clc1ccccc1 [Chlorobenzene] |  |  |  |  |  |  |  |  |  | 0.1% | NS (key: S represents as being an allergenic substance; NS represents as being a non-allergenic substance) | NS (key: S represents as being an allergenic substance; NS represents as being a non-allergenic substance) | 0.0% | 1.3% | − | 0.7% |  |  |
| O=CC=Cc1ccccc1 [Cinnamaldehyde] | 12.8% |  | 25.0% |  | 33.4% | 37.0% | 54.1% |  | 13.1% |  |  |  |  |  | 3% |  |  |  |
| CC(C=O)Cc1ccc(C(C)C)cc1 (stereo not shown) [Cyclamen aldehyde] | 0.0% | NS (NS represents as being a non-allergenic substance) | 2.4% | S (S represents as being an allergenic substance) | 6.1% | 3.1% | 12.2% | 22% | 1.7% |  |  |  |  |  |  |  |  |  |
| CCOC(=O)/C=C\C(=O)OCC [Diethyl maleate] | 4.7% | S (S represents as being an allergenic substance) | 19.8% | S (S represents as being an allergenic substance) | 18.0% | 31.8% | 31.2% | 5.8% | 7.7% |  |  |  |  |  |  |  |  |  |
| O=c1c(-c2ccccc2)c1-c1ccccc1 [Diphenylcyclopropenone] | 2.4% | S (S represents as being an allergenic substance) | 17.5% | S (S represents as being an allergenic substance) | 16.0% | 28.7% | 29.7% | 0.0003% | 6.3% |  |  |  |  |  |  |  |  |  |
| C=CC(=O)OCC [Ethyl acrylate] | 10.6% | S (S represents as being an allergenic substance) | 50.8% | S (S represents as being an allergenic substance) | 49.6% | 87.8% | 88.7% |  | 13.7% |  |  |  |  |  | 28% |  |  |  |
| C=C(C)C(=O)OCCOC(=O)C(=C)C [Ethylene glycol dimethacrylate] | 1.5% | NS (NS represents as being a non-allergenic substance) | 4.3% | NS (NS represents as being a non-allergenic substance) | 4.4% | 5.9% | 7.3% | 28% | 2.6% |  |  |  |  |  |  |  |  |  |
| O=CCCCC=O [Glutaraldehyde] | 47.4% | S (S represents as being an allergenic substance) | 26.9% | S (S represents as being an allergenic substance) | 23.7% | 0.8% | 0.0% | 0.1% | 53.1% |  |  |  |  |  |  |  |  |  |
| O=CC=O [Glyoxal] | 0.4% |  | 6.8% |  | 12.7% | 12.8% | 24.9% |  | 0.8% |  | S (key: S represents as being an allergenic substance; NS represents as being a non-allergenic substance) | S (key: S represents as being an allergenic substance; NS represents as being a non-allergenic substance) |  |  | 1.4% |  |  |  |
| CC(CC=O)CCCC(C)(C)O (stereo not shown) [Hydroxycitronellal] | 0.0% | S (S represents as being an allergenic substance) | 9.5% | S (S represents as being an allergenic substance) | 8.0% | 17.5% | 16.0% | 33% | 1.5% |  |  |  |  |  |  |  |  |  |
| CCCCCCCCCCCCOC(=O)c1cc(O)c(O)c(O)c1 [Lauryl gallate] | 15.9% | S (S represents as being an allergenic substance) | 59.5% | S (S represents as being an allergenic substance) | 57.7% | 100.0% | 99.5% | 0.3% | 19.0% |  |  |  |  |  |  |  |  |  |
| CCCCCCC#CC(=O)OC [Methyl 2-nonynoate] | 3.2% | S (S represents as being an allergenic substance) | 8.2% | S (S represents as being an allergenic substance) | 7.8% | 15.0% | 12.4% | 2.5% | 1.4% |  |  |  |  |  |  |  |  |  |
| CNc1ccc(O)cc1.CNc1ccc(O)cc1.O=S(=O)(O)O [Metol] | 15.9% | S (S represents as being an allergenic substance) | 61.4% | S (S represents as being an allergenic substance) | 57.9% | 100.0% | 100.0% | 0.8% | 22.8% |  |  |  |  |  |  |  |  |  |
| CCCCCCCCC(=O)O [Nonanoic acid] |  |  |  |  |  |  |  | 21% |  | 0.0% |  |  | 0.0% | 0.0% |  | 1.3% | NS (NS represents as being a non-allergenic substance) | NS (NS represents as being a non-allergenic substance) |

— US20210181109A1 (FUJIFILM Corporation, priority 2018, published 2021)
